This is an account of results in US20230355646A1, “AUTOPHAGY ACTIVATOR” (Resonac Corporation, priority 2020, published 2023).

For the assay, the system named is ATG5 gene. Kind of assay: ATG5 gene expression promoting effect in human senescent fibroblasts (quantitative real-time PCR). The assay is classed as cell-based. As to the method:
Normal human fibroblasts (NB1RGB, RIKEN BRC Cell Bank) were cultured until confluent in D-MEM medium (manufactured by Sigma-Aldrich) to which 10% fetal bovine serum (manufactured by MP Biomedicals) was added. Thereafter, the cells were treated with 250 μM aqueous hydrogen peroxide for 2 hours, and cultured for 24 hours in D-MEM medium to which fresh 10% fetal bovine serum was added. The treatment with aqueous hydrogen peroxide and the cell culture operation were repeated three times, and the obtained fibroblasts were used as senescent fibroblasts.
The prepared senescent fibroblasts were prepared at a seeding density of 10000 cells/cm^2 and cultured for 24 hours in D-MEM medium (manufactured by Sigma-Aldrich) to which 10% fetal bovine serum (manufactured by MP Biomedicals) was added. […]
Then, using Nucleospin (registered trademark) RNA kit (manufactured by Takara Bio Inc.), RNA was extracted from senescent fibroblasts or normal human fibroblasts in each example, and cDNA was synthesized from the obtained RNA. Next, using this cDNA as a template, by quantitative real-time PCR, the expression level of each gene was quantified using primers (manufactured by Takara Bio Inc.) specific to the LC3 gene, ATG5 gene, and ATG7 gene, respectively. […]
For orientation: In qPCR the cycle at which signal appears reflects the starting amount.

In the case of `COc1ccc([C@@H]2CC(=O)c3c(O)cc(O[C@@H]4O[C@H](CO[C@@H]5O[C@@H](C)[C@H](O)[C@@H](O)[C@H]5O)[C@@H](O)[C@H](O)[C@H]4O)cc3O2)cc1O` [Comparative Example 2, hesperidin], the “Relative gene expression level ATG5” value (10^−2% (V/V) methyl hesperidin or hesperidin, additional ingredient where in the example, 24 hours, Comparative Example 1 (DMSO) = 1.00) was 0.93. Further, under “compared to DMSO only of Comparative Example 1”, the “expression level of the ATG5 gene (in words)” value is on record as “more decreased”.
